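Tested at 5 concentrations; 48 h exposure; 96-well plates; endpoints linearly interpolated, else capped at highest concentration. TGI denotes the concentration required for complete inhibition of growth.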
Assays:
Assay in all cases: NCI anticancer screen, dose series, 48 h
HCT-116 colon = system: HCT-116 colon
MCF7 breast = system: MCF7 breast
MOLT-4 leukemia = system: MOLT-4 leukemia
NCI-H226 lung = system: NCI-H226 lung
NCI-H522 lung = system: NCI-H522 lung
OVCAR-8 ovarian = system: OVCAR-8 ovarian
SK-MEL-28 melanoma = system: SK-MEL-28 melanoma
SN12C renal = system: SN12C renal
SNB-19 CNS = system: SNB-19 CNS
SNB-75 CNS = system: SNB-75 CNS
UACC-257 melanoma = system: UACC-257 melanoma
UACC-62 melanoma = system: UACC-62 melanoma
UO-31 renal = system: UO-31 renal

Structure (SMILES) | TGI (HCT-116 colon) [µM] | TGI (MCF7 breast) [µM] | TGI (MOLT-4 leukemia) [µM] | TGI (NCI-H226 lung) [µM] | TGI (NCI-H522 lung) [µM] | TGI (OVCAR-8 ovarian) [µM] | TGI (SK-MEL-28 melanoma) [µM] | TGI (SN12C renal) [µM] | TGI (SNB-19 CNS) [µM] | TGI (SNB-75 CNS) [µM] | TGI (UACC-257 melanoma) [µM] | TGI (UACC-62 melanoma) [µM] | TGI (UO-31 renal) [µM]
COc1ccc2c(c1)-c1c(c3ccccc3n1CCN1CCCCC1)CC2 | 29.5 | > 80.8 | 47.4 | 37.5 | 28.6 | > 55.3 | 99.2 | > 83.9 | 66.4 | > 100 | 54.9 | 36.5 | 30
CCOP(=O)(CCC(O)CNc1nc(N)nc(Cl)c1N=Nc1ccc(Cl)cc1)OCC (stereo not given) | 40.3 | 26.3 | 37.1 | 64.5 | 23 | > 100 | 25.9 | 42.7 |  | 49.3 | 29.5 | 30.2 | 16.6
CC(=O)NNc1nc(C)c(C(/C=C/c2ccccc2O)=N/NC(=O)c2ccncc2)s1 | > 100 | > 100 | > 100 | > 100 | > 100 | > 100 | > 100 | > 100 | > 100 | > 100 | > 100 | > 100 | > 100
Cc1ccc(-c2cnc(NC3OC(COC(=O)c4ccccc4)C(OC(=O)c4ccccc4)C(OC(=O)c4ccccc4)C3OC(=O)c3ccccc3)s2)cc1 (stereo not given) | > 100 | > 100 | > 100 | > 100 | > 100 | > 100 | > 100 | > 100 | > 100 | > 100 | > 100 | > 100 | > 100
CC(C)[Si](OCC/C=C/C1CCC(=O)C1C(O)C1CCCCC1)(C(C)C)C(C)C (stereo not given) | 28 | 34.2 | 30 | 30 | 25.3 | 28.8 | 29 | 34.4 | 32.6 | 30.1 | 29.5 | 29.7 | 30.2
COC(=O)c1cccc(C)c1C1CN=NC12Cc1c(ccc(C)c1C)C2=O (stereo not given) | > 100 | > 100 | 86.7 | > 100 | > 100 | > 100 | > 100 | > 100 | > 100 | > 100 | > 100 |  | > 100
Cc1ccc2nc(CN3CCCCC3)cc(=O)n2c1 | > 100 | > 100 | > 100 | > 100 | > 100 | > 100 | > 100 | > 100 | > 100 | > 100 | > 100 | > 100 | > 100
COC(=O)C1=C(C(=O)OC)C(C(=O)c2ccccc2)N2N=C(c3ccc(Cl)cc3)C=CC12 (stereo not given) | > 100 | > 100 | > 100 | 66.1 | 43.5 | > 100 | > 100 | > 100 | > 100 |  | > 100 | > 100 | > 100
CCCOc1ccc(/C=C/C2=[N+](CCO)CCO2)cc1 | > 100 | > 100 | > 100 | > 100 | > 100 | > 100 | > 100 | > 100 | > 100 | > 100 | > 100 | > 100 | > 100
COC(=O)C(Cc1ccccc1)C(=O)NC(CNC(=O)OCc1ccccc1)C(=O)OCc1ccccc1 (stereo not given) | 77.9 | > 100 | 43.7 | > 80.2 | 72.3 | > 100 | 44 | > 100 | > 100 | 64.8 | 34.7 | 49.3 | > 94.4
Cn1c(=S)[nH]c2c(Cl)cc(Cl)cc2c1=O | > 100 | > 100 | > 100 |  | > 100 | > 100 | > 100 | > 100 | > 100 | > 100 | > 100 | > 100 | > 100
CC1=CC[C@@]2(C)[C@@H]([C@@H]1C)[C@H]1CC[C@@H]3[C@@]4(C)CC[C@H](O)C(C)(C)[C@@H]4CC[C@@]3(C)[C@]1(C)C[C@@H]2O | > 58 | > 100 | > 70.4 | > 100 | 8.15 | 28.7 | 13.9 | > 100 | > 66.4 | > 100 | 34.8 | > 68.8 | > 100
C#CCOC(=O)C(N)CS (stereo not given) | > 100 | > 100 | > 100 | > 100 | > 100 | > 100 | > 100 | > 100 |  | > 100 | > 100 | > 100 | > 100
O=S(=O)([N-]c1nc2ccccc2nc1-[n+]1ccccc1)c1ccccc1 | > 100 | > 100 | 95.4 | > 100 | > 100 | > 100 |  | > 100 | > 100 | > 100 | > 100 | > 100 | > 100
COc1ccc(OC)c2c(=O)cc(-c3ccccc3)[nH]c12 | > 100 | > 100 | > 100 | > 100 | > 100 | > 100 | > 100 | > 100 | > 100 | > 100 | > 100 | > 100 | > 100
C=C(CO)[C@H]1CC/C(C)=C/CC/C(C)=C/C/C=C(\C)[C@H](O)C1 | > 100 | 60.8 | 44.2 | 90.9 | 32.1 | 35.3 | 31.2 | 81.7 | > 100 | 78.9 | 39.7 | 58.4 | 93
NC(=O)CC1(O)C=CC(=O)C=C1 | > 100 | > 100 | > 100 | > 100 | > 100 | > 100 | > 100 | > 100 | > 100 | > 100 | > 100 | > 100 | > 100
